The record followed here is PubChem BioAssay (NCI).

Holding throughout (test): DTP human tumour cell line panel, 48 h
In experiment [1] the test system is MALME-3M melanoma.
Experiment [2] relates to SK-MEL-2 melanoma.
Experiment [3] relates to HOP-92 NSCLC.
Experiment [4] relates to LOX IMVI melanoma.
Experiment [5] deals with M14 melanoma.
Experiment [6] relates to OVCAR-4 ovarian.
Experiment [7] deals with HS 578T breast.
In experiment [8] the test system is HT29 colon.
The subject of experiment [9] is HCT-116 colon.
Experiment [10] has as its system SF-268 CNS.
Experiment [11] concerns RXF 393 renal.
For experiment [12], the system named is CAKI-1 renal.
The subject of experiment [13] is MDA-MB-231 breast.
Experiment [14] has as its system OVCAR-5 ovarian.
In experiment [15] the test system is OVCAR-3 ovarian.
Experiment [16] relates to OVCAR-8 ovarian.
Experiment [17] concerns T-47D breast.
The subject of experiment [18] is KM12 colon.
Experiment [19] has as its system HCT-15 colon.

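96-well plates; 48 h exposure; 5 concentrations. Endpoints by linear interpolation between flanking doses. Not reached: highest tested concentration assigned. TGI is the concentration that stops growth completely.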 Some results are limits rather than exact numbers.

`COC1/C=C/C(C)C(C(C)C(OC)C(C)CCC(=O)C(C)C(C/C=C/N(C)C=O)OC)OC(=O)C=CC2OC2(C)CC(OC)C(OC)C2=CC(=O)O[C@@H](C(C)C(OC)CC(OC)/C=C/C(C)C(O)C1)[C@H]2O` (some centres undefined): the TGI – broadly, the concentration giving total growth inhibition – is 0.854 µM in experiment [1]; 0.0446 µM in experiment [2]; 0.0235 µM in experiment [3]; 0.00617 µM in experiment [4]; 0.00985 µM in experiment [5]; greater than 1.24 µM in [6]. The TGI in experiment [7] turned out to be 0.0351 µM; in experiment [8], 0.0108 µM; in experiment [9], 0.00596 µM; in experiment [10], 0.0186 µM; in experiment [11], 0.0473 µM; in experiment [12], 0.0203 µM. In addition, the TGI in experiment [13] came out at 0.0197 µM; in experiment [14], 0.0464 µM; in [15], 0.0341 µM.

For `Cc1n[nH]c(=O)n1N1C(=O)CCCC1=O`, the TGI in [1], in [2], in [16], in experiment [5], in experiment [7] and in [8] was greater than 100 µM in each case. Besides, the TGI in [9], in experiment [10], in experiment [11], in experiment [12], in experiment [13] and in experiment [14] was greater than 100 µM in each case. The TGI in [15] and in experiment [17] was greater than 100 µM each time.

Regarding `CCN1CCC(C)OP1(=O)Cc1ccccc1` (centres undefined), the TGI in experiment [1], in [2], in experiment [4], in experiment [16], in [5] and in [6] was greater than 100 µM throughout. The TGI in experiment [18], in [8], in experiment [19], in experiment [9], in experiment [10] and in experiment [12] was greater than 100 µM each time. Also, the TGI in experiment [13], in experiment [14], in experiment [15] and in experiment [17] was greater than 100 µM in each case.

On to `CC1CC(C)C(C#N)N(C)c2ccccc21` (centres undefined), for which the TGI in [1], in experiment [2], in experiment [16], in [5], in experiment [6] and in experiment [18] was greater than 100 µM in each case. In addition, the TGI in experiment [7], in experiment [8], in experiment [19], in experiment [9], in [10] and in experiment [11] was greater than 100 µM throughout. The TGI in experiment [12], in [13], in [14], in experiment [15] and in experiment [17] was greater than 100 µM in each case.

Regarding `CC1(C)C=Cc2c(cc(O)c3c(=O)c4cc(Cl)ccc4[nH]c23)O1`, the TGI in [1] is 7.5 µM; in [2], 9.75 µM; in [3] it was 7.79 µM; in experiment [4], 8.11 µM; in experiment [16] it was greater than 10 µM; in experiment [6] it was greater than 10 µM. Moreover, the TGI is 8.75 µM in experiment [18]; greater than 10 µM in [8]; greater than 10 µM in experiment [19]; greater than 10 µM in experiment [9]; greater than 10 µM in experiment [10]; greater than 10 µM in experiment [11]. For the same molecule, the TGI in experiment [12] was greater than 10 µM; in experiment [13], greater than 10 µM; in [14] it was 6.16 µM; in experiment [15] it was 3.01 µM; in experiment [17] it was greater than 10 µM.

For the molecule `COc1c(F)c(F)c(/C(O)=C\c2nc3ccccc3[nH]c2=O)c(F)c1F`, the TGI in experiment [1] is greater than 10 µM; in [3], greater than 10 µM; in [4], 8.34 µM; in experiment [16] it was greater than 10 µM; in experiment [5], greater than 10 µM; in [6] it was 4.94 µM. Also, the TGI in [18], in experiment [8], in experiment [19], in experiment [10], in experiment [11] and in experiment [12] was greater than 10 µM throughout. The TGI in [13] and in [17] was greater than 10 µM in each case.

`COC(=O)[C@H](CCSC)NC(=O)N[C@H](C)c1ccccc1`: the TGI in experiment [1], in experiment [2], in experiment [3], in [4], in [16] and in experiment [5] was greater than 100 µM in each case. The TGI in [6], in experiment [18], in experiment [7], in experiment [8], in experiment [19] and in [9] was greater than 100 µM each time. Moreover, the concentration for total growth inhibition (TGI) in experiment [10], in [12], in experiment [13], in experiment [14] and in experiment [15] was greater than 100 µM each time.

As to `CC(C)(C)OC(=O)NC(Cc1ccccc1)OCc1ccccc1` (centres undefined), the TGI in experiment [1] turned out to be 44.2 µM; in [2], 74.7 µM; in experiment [16] it was 39.9 µM; in experiment [5] it was 39.7 µM; in [18] it was 37.4 µM; in [7], 51.5 µM. Moreover, the TGI in experiment [8] came out at 44.5 µM; in [19], 36.1 µM; in [9], 31.8 µM; in experiment [10] it was 36.2 µM; in experiment [11] it was 35.1 µM; in experiment [12], 37.8 µM. Moreover, the TGI in experiment [13] was 30.2 µM; in experiment [14], 58.2 µM; in experiment [15] it was 49.3 µM; in [17] it was 39.8 µM.

With `O=[N+]([O-])c1cccc2nnccc12`, the TGI in experiment [1] is 26.9 µM; in [2] it was greater than 100 µM; in experiment [3] it was 71.4 µM; in [16], greater than 100 µM; in experiment [5] it was greater than 100 µM; in [18] it was greater than 100 µM. Moreover, the TGI in experiment [7] was greater than 100 µM; in experiment [8], 53.6 µM; in [19], 28.3 µM; in experiment [9], 29.4 µM; in experiment [10], greater than 100 µM; in experiment [11], greater than 100 µM. Moreover, the TGI in experiment [12] is 90.6 µM; in experiment [14], greater than 100 µM; in experiment [17], greater than 100 µM.

Consider `CCN1C(=O)c2cc(OC)c(OC)cc2C(=O)C12OC(=O)c1cc3c(cc12)OCO3` (centres undefined), for which the TGI is greater than 100 µM in experiment [1]; 49.9 µM in [2]; greater than 100 µM in [3]; greater than 100 µM in experiment [4]; greater than 100 µM in experiment [16]; greater than 100 µM in experiment [5]. For the same molecule, the TGI in experiment [6], in experiment [18], in [7], in experiment [8], in experiment [19] and in [9] was greater than 100 µM each time. Moreover, the TGI is greater than 100 µM in experiment [10]; 72.9 µM in experiment [11]; greater than 100 µM in experiment [12]; greater than 100 µM in experiment [13]; greater than 100 µM in experiment [14]; greater than 100 µM in [15].

Turning to `CCC(CCCN)Nc1cc(OC)cc2c(C)ccnc12` (centres undefined), the TGI amounted to 50.4 µM in experiment [1]; 41.5 µM in [2]; 30.6 µM in [3]; 31.6 µM in experiment [4]; 42.2 µM in experiment [16]; 29.3 µM in experiment [5]. Besides, the TGI in experiment [6] worked out at 39 µM; in experiment [18], 29 µM; in experiment [7], 27.6 µM; in experiment [8] it was 28.6 µM; in experiment [19], 58.4 µM; in experiment [9], 37.2 µM. Also, the concentration for total growth inhibition (TGI) in experiment [10] worked out at 31.6 µM; in experiment [11], 27 µM; in experiment [12], 29.5 µM; in experiment [13], 28.5 µM; in [14], 32.5 µM; in experiment [15], 34.7 µM.

For `COc1cc2c(c(OC)c1)/C(=C/Sc1ccccc1)C(=O)N(C(C)(C)C)C2`, the TGI in experiment [2] is 42.5 µM; in [3] it was 38.8 µM; in experiment [4], 37.1 µM; in [16], 79.6 µM; in experiment [6], greater than 100 µM; in experiment [18], 66.1 µM. Also, the TGI was 75.1 µM in experiment [8]; 91.9 µM in experiment [19]; 40.2 µM in experiment [9]; 39 µM in experiment [10]; greater than 100 µM in experiment [12]; 64.4 µM in experiment [13]. In addition, the TGI in [14] was greater than 100 µM; in experiment [15], 53.2 µM; in [17] it was greater than 100 µM.

As for `CCC(C=O)P1(=O)OC(C)(C)CN1C(C)(C)C` (centres undefined), the TGI in experiment [1], in experiment [2], in experiment [4], in experiment [16], in [5] and in experiment [6] was greater than 100 µM in each case. For the same molecule, the TGI in experiment [18], in experiment [8], in experiment [19], in experiment [9], in [10] and in experiment [12] was greater than 100 µM in each case. In addition, the TGI in experiment [13] was greater than 100 µM; in experiment [14] it was greater than 100 µM; in experiment [15], 81.3 µM; in [17] it was greater than 100 µM.

In the case of `CC(=O)C1C(=O)C(=O)N(c2cccc([N+](=O)[O-])c2)C1=O` (centres undefined), the TGI in experiment [2], in experiment [3], in experiment [4], in [16], in experiment [5] and in experiment [6] was greater than 100 µM throughout. For the same molecule, the TGI in experiment [18], in experiment [7], in [8], in experiment [19], in experiment [9] and in [10] was greater than 100 µM each time. The TGI in [11], in [12], in experiment [13], in [14] and in experiment [15] was greater than 100 µM throughout.

`CN(C)c1ccc(NN=C2SC(=Nc3ccccc3)C(=Nc3ccccc3)S2)cc1`: the TGI in [1], in [2], in experiment [3], in experiment [4], in [16] and in experiment [6] was greater than 100 µM throughout. Also, the TGI in experiment [18], in [7], in [8], in experiment [19], in experiment [9] and in experiment [10] was greater than 100 µM in each case. Moreover, the TGI in experiment [11], in [12], in experiment [14] and in experiment [17] was greater than 100 µM throughout.

As to `O=C(NNCC(O)COc1ccccc1)c1ccccc1` (centres undefined), the TGI in experiment [1], in [2], in experiment [3], in experiment [4], in experiment [16] and in [5] was greater than 100 µM throughout. The TGI in experiment [6], in [18], in experiment [8], in experiment [19], in [9] and in [11] was greater than 100 µM in each case. Further, the TGI in [12], in experiment [13], in [14], in [15] and in [17] was greater than 100 µM in each case.

On to `NC(N)=NCCCC(NC(=O)c1cccc2c(=O)c3ccccc3[nH]c12)C(=O)O` (centres undefined), for which the TGI in [1], in experiment [2], in [3], in experiment [4], in experiment [16] and in experiment [5] was greater than 100 µM throughout. The TGI in [6], in experiment [18], in experiment [7], in [8], in [19] and in experiment [9] was greater than 100 µM throughout. Further, the TGI in experiment [10], in [13], in experiment [14] and in [15] was greater than 100 µM in each case.
